# Read-outs that look alike come from different tables or passages of the source. Positions of bridges follow the written chain, without caps; N, C: chain ends. Residues, ends and D or L forms follow the SMILES beside them.
# Key:
# [1] = Metabolic stability with liver microsomes; format: in vitro ADME; conditions: substrate initial conc. 1 µM, 37°C, up to 45 min
# Method: (§1) Incubations with preparations of microsomes and cytosol and with plasma under conditions as described below are suitable to investigate the metabolic stability of test compounds (e.g. oxidative metabolism reactions and hydrolysis by esterases). The metabolic stability of the test compounds of examples 1 and 2 is investigated in liver microsomes and cytosol of humans, dogs and rats and in plasma of humans and rats.
# (§2) Incubations of test compounds (final concentration: 1 µM) are performed with liver microsomes and cytosol (0.5 mg protein/ml) in Tris buffer (Tris-(hydroxymethyl)-aminomethane) pH 7.4 (0.1 M) containing magnesium chloride (5 mM) at 37°C for up to 45 min in a total volume of 100 µl. The reaction is initiated by addition of β-nicotinamide adenine dinucleotide phosphate, reduced form (NADPH, 1 mM) and terminated by addition of acetonitrile. After vortex mixing and centrifugation the supernatants are analyzed.
# (§3) The samples are analyzed by on-line solid phase extraction and reversed phase HPLC coupled to electro-spray ionization tandem mass spectrometry. The measurements are performed on a triple quad mass spectrometer Quattro II (Micromass, Manchester, UK). The instrument operates at nominal mass resolution in SIR-mode. The analytes are quantified by detection of their quasimolecular ions [M+2H]^2+ m/z 1019 (Example 1) and m/z 1026 (Example 2).
# human glucagon receptor = target: T1, human glucagon receptor (Homo sapiens, UniProt P47871); assay: Glucagon binding assay (competition binding with 125I-glucagon, BHK-21 cell membranes)
# T1 construct: expressed in transfected cells; host or cells: BHK-21(C-13) baby hamster kidney cells, stably transfected (pcDNA3.1 construct, G-418 selection); plasma membranes
# Method: Binding of peptides to the glucagon receptor was assayed in a competition binding-assay using a membrane fraction containing the cloned human glucagon receptor and radiolabeled glucagon. The cDNA coding for the human glucagon receptor was cloned into expression vector pcDNA3.1 (Invitrogene). Baby hamster kidney cells (BHK-21(C-13) cells (ATCC)) were transfected with the expression construct for the human glucagon receptor and a stably transfected cell clone was isolated after selection with G-418 (Gibco). Plasma membranes containing the human glucagon receptor were prepared from stably transfected BHK-21 cells. Cells were grown to confluence, washed and detached with ice cold PBS buffer (Gibco), containing 0.05% EDTA and collected in PBS buffer. The cells were collected by centrifugation and suspended in 20 volumes of ice-cold tris buffer (10 mM tris/HCl, pH7.2; 0.01 mM PMSF (Phenylmethylsulfonyl fluoride)) and incubated for 90 minutes. […] The protein-bound radioactivity is separated from unbound ligand by filtration and washing on a Multiscreen-[…] (Millipore) using GC/B filters (Packard) and measured after addition of 20 μl Microscint 20 in a topcount scintillation counter (Packard). The non-specific binding is defined as radioactivity bound in the presence of 1 μM glucagon (Wherl GmbH). Accordingly an IC50 value can be calculated from the results obtained in the above test method. […]
# Solubility in buffer = format: physicochemical
# Description: and the following solubilities:
# [2] = Metabolic stability with liver cytosol; format: in vitro ADME; conditions: substrate initial conc. 1 µM, 37°C, up to 45 min
# Method: as §1, §2, §3
# Stability in plasma = format: in vitro ADME; conditions: Rat Plasma; substrate initial conc. 1 µM; 37°C, up to 45 min
# Method: as §1
# Incubations of test substrates (final concentration: 1 µM) are performed with human and rat plasma (heparin) containing 0.1 M Tris buffer pH 7.4. The reaction is initiated by addition of the test compound at 37°C for up to 45 min and terminated by addition of acetonitrile. After vortex mixing and centrifugation the supernatants are analyzed.
# as §3
# T1 sequence (P47871 26-477): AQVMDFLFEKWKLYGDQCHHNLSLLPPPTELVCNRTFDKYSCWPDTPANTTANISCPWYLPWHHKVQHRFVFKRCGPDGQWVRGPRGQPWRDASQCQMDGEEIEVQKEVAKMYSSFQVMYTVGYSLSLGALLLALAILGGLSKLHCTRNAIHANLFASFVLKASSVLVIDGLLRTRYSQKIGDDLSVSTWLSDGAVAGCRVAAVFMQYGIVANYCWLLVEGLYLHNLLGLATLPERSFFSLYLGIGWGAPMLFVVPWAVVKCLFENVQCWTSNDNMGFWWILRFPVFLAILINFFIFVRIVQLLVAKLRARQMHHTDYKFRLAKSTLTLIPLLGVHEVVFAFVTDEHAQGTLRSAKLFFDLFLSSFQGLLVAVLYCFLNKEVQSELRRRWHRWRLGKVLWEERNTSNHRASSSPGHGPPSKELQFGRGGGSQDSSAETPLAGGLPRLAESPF
SMILES,"Half-lives, (t½ [min]) ([1]; Dog Micros)","Half-lives, (t½ [min]) ([1]; Human Micros)","Half-lives, (t½ [min]) ([1]; Rat Micros)","IC50 (human glucagon receptor; competition with 125I-glucagon, membranes with cloned human glucagon receptor, read-out: IC50) [nM]",solubilities (Solubility in buffer; Buffer pH 3.0) [mg/mL],solubilities (Solubility in buffer; Buffer pH 7.4) [mg/mL],solubilities (Solubility in buffer; Buffer pH 10.0) [mg/mL],"Half-lives, (t½ [min]) ([2]; Dog Cytosol)","Half-lives, (t½ [min]) ([2]; Human Cytosol)","Half-lives, (t½ [min]) ([2]; Rat Cytosol)","Half-lives, (t½ [min]) (Stability in plasma)",IC50 (human glucagon receptor) [nM]
CC[C@H](C)[C@@H]1NC(=O)[C@@H]2CC(=O)NCC(=O)N[C@@H](CC(C)C)C(=O)N3CCC[C@H]3C(=O)N[C@@H](Cc3c[nH]c4ccccc34)C(=O)NCC(=O)N[C@@H](CSSC[C@@H](C(=O)O)NC(=O)[C@H](C)NC(=O)[C@H](Cc3c[nH]c4ccccc34)NC(=O)[C@@H]3CCCN3C(=O)[C@H]([C@@H](C)O)NC(=O)[C@H](CC(N)=O)NC(=O)[C@H](Cc3c[nH]c4ccccc34)NC(=O)CNC(=O)[C@@H]3CCCN3C1=O)C(=O)N1CCC[C@H]1C(=O)N[C@@H](CO)C(=O)N2 [Example 1] (GLPWGCPSDIPGWNTPWAC-OH; disulfide 6-19; lactam N-9),stable,stable,stable,100,0.003,0.120,0.092,stable,stable,stable,stable,–
CC[C@H](C)[C@@H]1NC(=O)[C@@H]2CC(=O)NCC(=O)N[C@@H](CC(C)C)C(=O)N3CCC[C@H]3C(=O)N[C@@H](Cc3c[nH]c4ccccc34)C(=O)NCC(=O)N[C@@H](CSSC[C@@H](C(=O)OC)NC(=O)[C@H](C)NC(=O)[C@H](Cc3c[nH]c4ccccc34)NC(=O)[C@@H]3CCCN3C(=O)[C@H]([C@@H](C)O)NC(=O)[C@H](CC(N)=O)NC(=O)[C@H](Cc3c[nH]c4ccccc34)NC(=O)CNC(=O)[C@@H]3CCCN3C1=O)C(=O)N1CCC[C@H]1C(=O)N[C@@H](CO)C(=O)N2 [Example 2] (GLPWGCPSDIPGWNTPWAC-OMe; disulfide 6-19; lactam N-9),stable,stable,stable,–,0.003,0.002,0.004,–,–,–,stable,135
